Reference: US20100267561A1, “HERBICIDAL PYRIDAZINONE DERIVATIVES” (priority 2007, published 2010)
Read-outs that look alike come from different tables or passages of the source.

Assays:
Experiment in all cases: Test B pre-/postemergence plant response
Type in all cases: in vivo
[1] = tested on: bermudagrass (Cynodon dactylon); settings: for Bermudagrass plant response rating: 8 g ai/ha; for pest or weed control at 16 g/ha / pest or weed control at 31 g/ha / pest or weed control at 62 g/ha: Cynodon dactylon, read-out: Plant response rating, Bermudagrass; for pest or weed control at 16 g/ha: 16 g ai/ha; for pest or weed control at 31 g/ha: 31 g ai/ha; for pest or weed control at 62 g/ha: 62 g ai/ha
Method in brief: (§1)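 Preemergence and postemergence (plants 2-18 cm, 1- to 4-leaf stage) applications used test chemicals in a non-phytotoxic solvent with surfactant. Plants were held in a greenhouse 13 to 15 days, then rated visually against controls on a 0-100 scale (0 no effect, 100 complete control).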

[2] = tested on: goosegrass (Eleusine indica); settings: for Goosegrass plant response rating: 8 g ai/ha; for pest or weed control at 16 g/ha / pest or weed control at 31 g/ha / pest or weed control at 62 g/ha: Eleusine indica, read-out: Plant response rating, Goosegrass; for pest or weed control at 16 g/ha: 16 g ai/ha; for pest or weed control at 31 g/ha: 31 g ai/ha; for pest or weed control at 62 g/ha: 62 g ai/ha
Method in brief: as §1

kochia (Kochia scoparia) = settings: for Kochia plant response rating: 8 g ai/ha; for Plant response rating, Kochia: Postemergence
Method in brief: as §1

soybean (Glycine max) = settings: for Soybean plant response rating: 8 g ai/ha; for plant injury at 16 g/ha: 16 g ai/ha; for plant injury at 62 g/ha: 62 g ai/ha
Method in brief: as §1

corn (Zea mays) = settings: for Corn plant response rating: 8 g ai/ha; for Corn plant response rating (crop injury, 0 = no effect, 100 = complete kill) at 16 g/ha / Corn plant response rating (crop injury, 0 = no effect, 100 = complete kill) at 31 g/ha / Corn plant response rating (crop injury, 0 = no effect, 100 = complete kill) at 62 g/ha: Zea mays; for Corn plant response rating (crop injury, 0 = no effect, 100 = complete kill) at 16 g/ha: 16 g ai/ha; for Corn plant response rating (crop injury, 0 = no effect, 100 = complete kill) at 31 g/ha: 31 g ai/ha; for Corn plant response rating (crop injury, 0 = no effect, 100 = complete kill) at 62 g/ha: 62 g ai/ha
Method in brief: as §1

[3] = tested on: cocklebur (Xanthium strumarium); settings: for Cocklebur plant response rating: 8 g ai/ha; for pest or weed control at 16 g/ha / pest or weed control at 31 g/ha / pest or weed control at 62 g/ha: Xanthium strumarium, read-out: Plant response rating, Cocklebur; for pest or weed control at 16 g/ha: 16 g ai/ha; for pest or weed control at 31 g/ha: 31 g ai/ha; for pest or weed control at 62 g/ha: 62 g ai/ha
Method in brief: as §1

[4] = tested on: velvetleaf (Abutilon theophrasti); settings: for Velvetleaf plant response rating: 8 g ai/ha; for pest or weed control at 16 g/ha: 16 g ai/ha; for pest or weed control at 62 g/ha: 62 g ai/ha
Method in brief: as §1

[5] = post-emergence, Postemergence, scale 0 to 100
[6] = post-emergence, Postemergence, scale 0 to 100, 0 no effect, 100 complete control
[7] = pre-emergence, Preemergence, scale 0 to 100 (0 no effect, 100 complete control)
[8] = pre-emergence, Preemergence, 0 to 100 scale, 0 no effect, 100 complete control
[9] = pre-emergence, Preemergence, scale 0 to 100

CCc1c(C)c(-c2ccc(Cl)cc2)nn1-c1c(O)cnn(C)c1=O [Compound 26, 4-[3-(4-chlorophenyl)-5-ethyl-4-methyl-1H-pyrazol-1-yl]-5-hydroxy-2-methyl-3(2H)-pyridazinone]
100%: Corn plant response rating (crop injury, 0 = no effect, 100 = complete kill) at 31 g/ha (corn (Zea mays); [6]) | Corn plant response rating (crop injury, 0 = no effect, 100 = complete kill) at 62 g/ha (corn (Zea mays); [6])
70%: pest or weed control at 31 g/ha [2, 8] | Corn plant response rating (crop injury, 0 = no effect, 100 = complete kill) at 31 g/ha (corn (Zea mays); [8])
0%: pest or weed control at 16 g/ha [1, 5] | pest or weed control at 31 g/ha [1, 6] | pest or weed control at 62 g/ha [1, 6] | pest or weed control at 16 g/ha [1, 7] | pest or weed control at 31 g/ha [1, 8] | pest or weed control at 16 g/ha [2, 5] | pest or weed control at 31 g/ha [2, 6] | plant injury at 16 g/ha (soybean (Glycine max); Glycine max, post-emergence, Postemergence, scale 0 to 100, read-out: Plant response rating, Soybean) | plant injury at 62 g/ha (soybean (Glycine max); Glycine max, post-emergence, Postemergence, scale 0 to 100, 0 no effect, 100 complete control, read-out: Plant response rating, Soybean) | plant injury at 16 g/ha (soybean (Glycine max); Glycine max, pre-emergence, Preemergence, scale 0 to 100 (0 no effect, 100 complete control), read-out: Plant response rating, Soybean) | plant injury at 31 g/ha (soybean (Glycine max); Glycine max, pre-emergence, Preemergence, 31 g ai/ha, 0 to 100 scale, 0 no effect, 100 complete control, read-out: Plant response rating, Soybean) | plant injury at 62 g/ha (soybean (Glycine max); Glycine max, pre-emergence, Preemergence, scale 0 to 100, read-out: Plant response rating, Soybean) | Corn plant response rating (crop injury, 0 = no effect, 100 = complete kill) at 16 g/ha (corn (Zea mays); [5]) | pest or weed control at 16 g/ha [3, 5] | pest or weed control at 31 g/ha [3, 6] | pest or weed control at 62 g/ha [3, 6] | pest or weed control at 16 g/ha [3, 7] | pest or weed control at 31 g/ha [3, 8] | pest or weed control at 16 g/ha ([4]; Abutilon theophrasti, post-emergence, Postemergence, scale 0 to 100, read-out: Plant response rating, Velvetleaf) | pest or weed control at 62 g/ha ([4]; Abutilon theophrasti, post-emergence, Postemergence, scale 0 to 100, 0 no effect, 100 complete control, read-out: Plant response rating, Velvetleaf) | pest or weed control at 16 g/ha ([4]; Abutilon theophrasti, pre-emergence, Preemergence, scale 0 to 100 (0 no effect, 100 complete control), read-out: Plant response rating, Velvetleaf) | pest or weed control at 31 g/ha ([4]; Abutilon theophrasti, pre-emergence, Preemergence, 31 g ai/ha, 0 to 100 scale, 0 no effect, 100 complete control, read-out: Plant response rating, Velvetleaf) | pest or weed control at 62 g/ha ([4]; Abutilon theophrasti, pre-emergence, Preemergence, scale 0 to 100, read-out: Plant response rating, Velvetleaf)
0: Bermudagrass plant response rating ([1]; postemergence, 0-100 scale) | Bermudagrass plant response rating ([1]; Preemergence, scale 0 to 100 (0 no effect, 100 complete control)) | Goosegrass plant response rating ([2]; postemergence, 0-100 scale) | Kochia plant response rating (kochia (Kochia scoparia); postemergence, 0-100 scale) | Plant response rating, Kochia (kochia (Kochia scoparia); 16 g ai/ha, scale 0 to 100) | Plant response rating, Kochia (kochia (Kochia scoparia); 31 g ai/ha, scale 0 to 100, 0 no effect, 100 complete control) | Plant response rating, Kochia (kochia (Kochia scoparia); 62 g ai/ha, scale 0 to 100, 0 no effect, 100 complete control) | Kochia plant response rating (kochia (Kochia scoparia); Preemergence, scale 0 to 100) | Soybean plant response rating (soybean (Glycine max); postemergence, 0-100 scale) | Soybean plant response rating (soybean (Glycine max); Preemergence, scale 0 to 100) | Corn plant response rating (corn (Zea mays); postemergence, 0-100 scale) | Cocklebur plant response rating ([3]; postemergence, 0-100 scale) | Cocklebur plant response rating ([3]; Preemergence, scale 0 to 100) | Velvetleaf plant response rating ([4]; postemergence, 0-100 scale) | Velvetleaf plant response rating ([4]; Preemergence, scale 0 to 100)
30%: Corn plant response rating (crop injury, 0 = no effect, 100 = complete kill) at 16 g/ha (corn (Zea mays); [7])
98%: Corn plant response rating (crop injury, 0 = no effect, 100 = complete kill) at 62 g/ha (corn (Zea mays); [9])
95%: pest or weed control at 62 g/ha [2, 9]
20%: pest or weed control at 62 g/ha [2, 6]
10%: pest or weed control at 62 g/ha [3, 9]
50: Goosegrass plant response rating ([2]; Preemergence, scale 0 to 100)
15: Corn plant response rating (corn (Zea mays); Preemergence, scale 0 to 100)
50%: pest or weed control at 16 g/ha [2, 7]
80%: pest or weed control at 62 g/ha [1, 9]
